Results taken from PubChem BioAssay (NCI).
Values joined by “and” are separate entries in the source; they are usually repeats but may differ in a detail not shown here. Equal values may be shown once.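 Briefly, cells in 96-well plates were exposed to five compound concentrations for 48 h, and endpoints were estimated by linear interpolation. GI50 is the concentration that inhibits growth by half. TGI: total growth inhibition.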

Columns and labels:
Assay in all cases: NCI anticancer screen, dose series, 48 h
SN12C renal = tested on: SN12C renal
SNB-19 CNS = tested on: SNB-19 CNS
OVCAR-4 ovarian = tested on: OVCAR-4 ovarian
SF-539 CNS = tested on: SF-539 CNS
UACC-257 melanoma = tested on: UACC-257 melanoma
A549 NSCLC = tested on: A549 NSCLC
SK-OV-3 ovarian = tested on: SK-OV-3 ovarian
IGROV1 ovarian = tested on: IGROV1 ovarian
MOLT-4 leukemia = tested on: MOLT-4 leukemia
HOP-62 NSCLC = tested on: HOP-62 NSCLC

| Structure (SMILES) | GI50 (SN12C renal) | TGI (SN12C renal) | GI50 (SNB-19 CNS) | TGI (SNB-19 CNS) | GI50 (OVCAR-4 ovarian) | TGI (OVCAR-4 ovarian) | GI50 (SF-539 CNS) | TGI (SF-539 CNS) | GI50 (UACC-257 melanoma) | TGI (UACC-257 melanoma) | GI50 (A549 NSCLC) | TGI (A549 NSCLC) | GI50 (SK-OV-3 ovarian) | TGI (SK-OV-3 ovarian) | GI50 (IGROV1 ovarian) | TGI (IGROV1 ovarian) | GI50 (MOLT-4 leukemia) | TGI (MOLT-4 leukemia) | GI50 (HOP-62 NSCLC) | TGI (HOP-62 NSCLC) |
| --- | --- | --- | --- | --- | --- | --- | --- | --- | --- | --- | --- | --- | --- | --- | --- | --- | --- | --- | --- | --- |
| COc1ccc(C/C(C)=C(/c2ccc(OCCN3CCCCC3)cc2)c2ccc(OC(=O)NCc3ccccc3)cc2)cc1 | 428 nM | 0.8 µM | 459 nM | 0.852 µM | 393 nM | 0.764 µM | 401 nM | 0.766 µM | 0.472 µM | 0.917 µM | 413 nM | 0.821 µM | 436 nM | 0.838 µM | 424 nM | 0.859 µM | 404 nM | 1.1 µM | 419 nM | 0.825 µM |
| O=C1C=CC(=O)C2=C1[C@@H](O)C1CC=CC3C(=O)O[C@@H]2C31 (some centres not stated) | – | 37.2 µM | – | > 100 µM | – | 17.7 µM | – | > 58.6 µM | – | > 57.5 µM | – | > 100 µM | – | > 100 µM | – | 22.6 µM | – | 56.5 µM | – | > 100 µM |
| C#CC#CC#CC#CC#CC#CC#CC#CCC1OCC(COC(=O)O[C@@H](C(=O)O[C@H]2C[C@@]3(O)[C@@H](OC(=O)c4ccccc4)[C@@H]4[C@]5(OC(C)=O)CO[C@@H]5C[C@H](O)[C@@]4(C)C(=O)[C@H](OC(C)=O)C(=C2C)C3(C)C)[C@@H](NC(=O)c2ccccc2)c2ccccc2)O1 (some centres not stated) | 510 nM | > 33.3 µM | 612 nM | > 33.3 µM | > 33300 nM | > 33.3 µM | 156 nM | 1.97 µM | > 8.95 µM | > 33.3 µM | 175 nM | > 33.3 µM | 510 nM | > 33.3 µM | 235 nM | > 33.3 µM | 212 nM | > 33.3 µM | 775 nM | > 33.3 µM |
| Cc1cccc(/C=N/NC(=S)N2CCCC2)n1 | 719 nM | – | 1400 nM | > 34.6 µM | – | 6.95 µM | 753 nM | – | – | 9.51 µM and 12.1 µM | 2500 nM | > 100 µM | – | > 100 µM | 415 nM | > 100 µM | – | > 100 µM | 2170 nM | 0.942 µM |
| O=C1/C(=C/c2ccccc2)CN(C(=O)CCN2CCOCC2)C/C1=C\c1ccccc1 | – | 4.55 µM | – | 14.5 µM | – | 8.38 µM | – | 4.2 µM | – | 4.99 µM | – | 20.2 µM | – | 24.2 µM | – | 18.8 µM | – | 21.6 µM | – | 17.3 µM |
| C[C@@H]1[C@H](C)N1CC(O)Cn1ccnc1[N+](=O)[O-] (some centres not stated) | – | > 100 µM | – | > 100 µM | – | > 100 µM | – | > 100 µM | – | > 100 µM | – | > 100 µM | – | > 100 µM | – | > 100 µM | – | > 100 µM | – | > 100 µM |
| COc1cc(C(=O)c2c(-c3ccccc3)oc3c(OC)cccc23)cc(OC)c1OC | 257 nM | > 100 µM | 78.9 nM | > 100 µM | – | > 100 µM | 29.3 nM | 0.173 µM | 28.3 µM | > 100 µM | 73.6 nM | > 100 µM | 1570 nM | > 100 µM | 67.7 nM | > 100 µM | 345 nM | > 100 µM | 71 nM | 47 µM |
| CC1(C)C2CCC13C(=O)C1OC3(C2)C2C(=O)c3ccccc3C(=O)C12 (configuration not stated) | > 100000 nM | > 100 µM | > 100000 nM | > 100 µM | – | – | > 100000 nM | > 100 µM | > 100 µM | > 100 µM | > 100000 nM | > 100 µM | > 100000 nM | > 100 µM | – | – | > 100000 nM | > 100 µM | > 100000 nM | > 100 µM |
| N/N=C(/C(=O)Nc1cccc(Cl)c1)C(C(=O)c1ccc(O)cc1O)C1OC(=O)c2ccccc21 (configuration not stated) | – | > 100 µM | – | > 100 µM | – | > 100 µM | – | > 100 µM | – | > 100 µM | – | > 100 µM | – | > 100 µM | – | > 100 µM | – | > 100 µM | – | > 100 µM |
| O=C1c2cc3c(cc2[C@@H]2[C@H]1c1ccc([N+](=O)[O-])cc1C(=O)N2CCCBr)OCO3 | < 10 nM | < 0.01 µM | < 10 nM | > 100 µM | 77.1 nM | 7 µM | < 10 nM | < 0.01 µM | < 0.01 µM | > 100 µM | < 10 nM | 0.0865 µM | < 10 nM | > 100 µM | < 13.6 nM | – | < 10 nM | 0.0541 µM | < 10 nM | < 0.0486 µM |
| CC(CN(C)C)/C(=N\Nc1ccccc1)c1ccccc1 (configuration not stated) | – | > 100 µM | – | 34.4 µM | – | 19.8 µM | – | 0.774 µM | – | 15.3 µM | – | 2.4 µM | – | 84.1 µM | – | > 100 µM | – | 14 µM | – | 12 µM |
| C=C/C=C/NC(=O)OCc1ccccc1 | – | > 100 µM | – | > 100 µM | – | > 100 µM | – | – | – | > 100 µM | – | > 100 µM | – | > 100 µM | – | > 100 µM | – | > 100 µM | – | > 100 µM |
| COc1cc2c(cc1OC)[C@H](C)N1CCc3cc(OC)c(OC)cc3[C@@H]1C2 | – | > 100 µM | – | > 100 µM | – | > 100 µM | – | > 100 µM | – | > 100 µM | – | > 100 µM | – | > 100 µM | – | > 100 µM | – | > 100 µM | – | – |
| CC(=O)Nc1ccc(S(=O)(=O)N/N=C/CN2C(=O)c3ccccc3C2=O)cc1 | – | > 100 µM | – | > 100 µM | – | > 100 µM | – | > 100 µM | – | > 100 µM | – | > 100 µM | – | – | – | > 100 µM | – | > 100 µM | – | > 100 µM |
| N#C/C(=C\c1ccsc1)c1nc2ccccc2o1 | > 100000 nM | > 100 µM | > 100000 nM | > 100 µM | > 100000 nM | > 100 µM | 38700 nM | > 100 µM | > 100 µM | > 100 µM | > 100000 nM | > 100 µM | 40700 nM | > 100 µM | 33300 nM | > 100 µM | > 100000 nM | > 100 µM | – | – |
| O=C(O)CC[C@H](NC(=O)c1ccc(-n2nc3ccc(O)cc3nc2=O)cc1)C(=O)O | – | > 100 µM | – | > 100 µM | – | > 100 µM | – | > 100 µM | – | > 100 µM | – | > 100 µM | – | – | – | > 100 µM | – | > 100 µM | – | > 100 µM |
